Data on 2 compounds can be found in patent US7090853B2, “Noscapine derivatives as adjuvant compositions and methods of use thereof” (Emory University, priority 1999, dated 2006).

This assay concerns HL-60 cells. The experiment in a line: Apoptosis of HL-60 cells, DAPI staining of nuclear chromatin. Type of assay: cell-based. Particulars: for Apoptic Cell Percentage: 24 hours; for Initiation of apoptosis: DAPI staining. As to the method:
Morphological changes in the nuclear chromatin of HL-60 cells undergoing apoptosis were detected by staining with 4′,6-diamidino-2-phenylindole (DAPI). In brief, 0.5×10^6 to 3×10^6 cells were fixed with 4% glutaraledebyde, 0.2% Triton x-100, in PBS and incubated at room temperature for 10 min., then centrifuged at 1000×g for 10 min., resuspended in 20 μl 0.1% DAPI ethanol. Following 15 min, incubation at room temperature, at 10 μl aliquot was placed on a glass slide, and 400 cells per slide were scored for the incidence of apoptotic chromatin changes with a fluorescence microscope.

The mark [1] stands for this setting: 20 μM in DMSO, two trials, result for each trial shown.

For the compound `COc1ccc2c(c1OC)CO[C@@H]2[C@H]1c2c(cc3c(c2OC)OCO3)CCN1C` [Compound 4, 1,3-dihydro-4,5-dimethoxy-1-[1-(8-methoxy-2-methyl-6,7-methylenedioxy-1,2,3,4-tetrahydroixo-quinolinyl)]isobenzofuran], the Initiation of apoptosis entry was “initiate apoptosis”. For the same compound, the “Apoptic Cell Percentage” value under setting [1] is recorded as 48.32%. Besides, the “Apoptic Cell Percentage” value (50 μM in DMSO) was 52%.

In the case of “1,3-dihydro-4,5-dimethoxy-1-[1-(8-methoxy-2-methyl-6,7-methylenedioxy-1,2,3,4-tetrahydroisoquinoliyl)]isobenzofuran-BH3 [Compound 3]”, the Initiation of apoptosis entry is “initiate apoptosis”. Under setting [1], the “Apoptic Cell Percentage” value turned out to be 37.28%. In addition, the “Apoptic Cell Percentage” value (50 μM in DMSO) worked out at 39%.
